Earlier results as cited in publication PMC9358669, “Native metabolomics identifies the rivulariapeptolide family of protease inhibitors” (Nature Communications, 2022).
Starred links: 1 amine or outer side, 2 acyl side, 3 side chain; linkers in the order of their positions; H or OH if unused. Positions of bridges follow the written chain, without caps; N, C: chain ends. Non-standard residues stand in square brackets, D forms with d. Residues, ends and D or L forms follow the SMILES beside them. *: point of attachment. Ahp(3S,6R)alloIle = CC[C@@H](C)[C@@H](C(=O)[*:2])N1C(=O)[C@@H](N[*:1])CC[C@H]1O; Propanoyl(2R-OMe,3-OSO3H) = CO[C@H](COS(=O)(=O)O)C(=O)*; NMeTyr(3-Br,OMe) = CN[C@@H](Cc1ccc(OC)c(Br)c1)C(=O)O

Test system: Chymotrypsin
Design: method as in earlier work
Settings: Supplementary Table 5, Top 50 chymotrypsin inhibitors among Ahp-cyclodepsipeptides; cited from earlier work

Compound	IC50 [nM]
CC[C@H](C)[C@@H]1NC(=O)[C@H](Cc2ccccc2)N(C)C(=O)[C@H](Cc2ccccc2)N2C(=O)[C@H](CC[C@H]2O)NC(=O)[C@H](CC(C)C)NC(=O)[C@@H](NC(=O)[C@H](O)CO)[C@@H](C)OC1=O [Micropeptin MM836]	1400
CCCCCC(=O)NCC(=O)N[C@H](C(=O)N[C@@H]1C(=O)N[C@@H](CCC(N)=O)C(=O)N[C@H]2CC[C@@H](O)N(C2=O)[C@@H](Cc2ccccc2)C(=O)N(C)[C@@H](Cc2ccc(O)cc2)C(=O)N[C@@H](C(C)C)C(=O)O[C@@H]1C)[C@@H](C)O [Micropeptin LH1021]	1100
CCCCCCCC(=O)N[C@@H](CCC(=O)O)C(=O)N[C@@H]1C(=O)N[C@@H](Cc2ccc(O)cc2)C(=O)N[C@H]2CC[C@@H](O)N(C2=O)[C@@H](CC(C)C)C(=O)N(C)[C@@H](Cc2ccc(O)cc2)C(=O)N[C@@H](C(C)C)C(=O)O[C@@H]1C [Micropeptin F]	1500
CC[C@@H](C)[C@H]1C(=O)N(C)[C@@H](Cc2ccc(OC)c(Br)c2)C(=O)N[C@@H]([C@@H](C)CC)C(=O)O[C@H](C)[C@H](NC(=O)[C@@H](NC(=O)[C@@H](COS(=O)(=O)O)OC)C(C)C)C(=O)N[C@@H](CCCCN)C(=O)N[C@H]2CC[C@@H](O)N1C2=O [Jizanpeptin C] ({Propanoyl(2R-OMe,3-OSO3H)}-VTK[Ahp(3S,6R)alloIle][NMeTyr(3-Br,OMe)]I; ester 2-C)	1400
Micropeptin KB1048	630
CCCCCC(=O)N[C@@H](CC(=O)O)C(=O)N[C@@H]1C(=O)N[C@@H](Cc2ccc(O)cc2)C(=O)N[C@H]2CC[C@@H](O)N(C2=O)[C@@H](CC(C)C)C(=O)N(C)[C@@H](Cc2ccccc2)C(=O)N[C@@H](C(C)C)C(=O)O[C@@H]1C [Cyanopeptolin 963A]	900
C/C=C1\NC(=O)[C@@H](NC(=O)[C@@H](NC(=O)[C@H](C)NC(=O)CCC)C(C)C)[C@@H](C)OC(=O)[C@H](C(C)C)NC(=O)[C@H](Cc2ccc(O)cc2)N(C)C(=O)[C@H](Cc2ccccc2)N2C(=O)[C@H](CC[C@H]2O)NC1=O [Bouillomide A]	170
